Measurements as given in paper PMC10288926 (Journal of Enzyme Inhibition and Medicinal Chemistry, 2023).
Read-outs that look alike come from different tables or passages of the source.

Experiments:
ROS1 = ROS1 (Homo sapiens, UniProt P08922); assay: HTRF KinEASE-TK kinase inhibitory assay, ROS1; assay type: biochemical; conditions: for inhibition at 1 µM: read-out: ROS1 Inhibition (1μM); for ROS1 Inhibition (1μM): kinase inhibition % at 1 μM
ALK^WT = ALK^WT (Homo sapiens, UniProt Q9UM73); assay: HTRF KinEASE-TK kinase inhibitory assay, ALK wild type; assay type: biochemical; conditions: for inhibition at 1 µM: read-out: ALK Inhibition (1μM); for ALK Inhibition (1μM): kinase inhibition % at 1 μM
ALK^WT, sequence (Q9UM73 19-1620): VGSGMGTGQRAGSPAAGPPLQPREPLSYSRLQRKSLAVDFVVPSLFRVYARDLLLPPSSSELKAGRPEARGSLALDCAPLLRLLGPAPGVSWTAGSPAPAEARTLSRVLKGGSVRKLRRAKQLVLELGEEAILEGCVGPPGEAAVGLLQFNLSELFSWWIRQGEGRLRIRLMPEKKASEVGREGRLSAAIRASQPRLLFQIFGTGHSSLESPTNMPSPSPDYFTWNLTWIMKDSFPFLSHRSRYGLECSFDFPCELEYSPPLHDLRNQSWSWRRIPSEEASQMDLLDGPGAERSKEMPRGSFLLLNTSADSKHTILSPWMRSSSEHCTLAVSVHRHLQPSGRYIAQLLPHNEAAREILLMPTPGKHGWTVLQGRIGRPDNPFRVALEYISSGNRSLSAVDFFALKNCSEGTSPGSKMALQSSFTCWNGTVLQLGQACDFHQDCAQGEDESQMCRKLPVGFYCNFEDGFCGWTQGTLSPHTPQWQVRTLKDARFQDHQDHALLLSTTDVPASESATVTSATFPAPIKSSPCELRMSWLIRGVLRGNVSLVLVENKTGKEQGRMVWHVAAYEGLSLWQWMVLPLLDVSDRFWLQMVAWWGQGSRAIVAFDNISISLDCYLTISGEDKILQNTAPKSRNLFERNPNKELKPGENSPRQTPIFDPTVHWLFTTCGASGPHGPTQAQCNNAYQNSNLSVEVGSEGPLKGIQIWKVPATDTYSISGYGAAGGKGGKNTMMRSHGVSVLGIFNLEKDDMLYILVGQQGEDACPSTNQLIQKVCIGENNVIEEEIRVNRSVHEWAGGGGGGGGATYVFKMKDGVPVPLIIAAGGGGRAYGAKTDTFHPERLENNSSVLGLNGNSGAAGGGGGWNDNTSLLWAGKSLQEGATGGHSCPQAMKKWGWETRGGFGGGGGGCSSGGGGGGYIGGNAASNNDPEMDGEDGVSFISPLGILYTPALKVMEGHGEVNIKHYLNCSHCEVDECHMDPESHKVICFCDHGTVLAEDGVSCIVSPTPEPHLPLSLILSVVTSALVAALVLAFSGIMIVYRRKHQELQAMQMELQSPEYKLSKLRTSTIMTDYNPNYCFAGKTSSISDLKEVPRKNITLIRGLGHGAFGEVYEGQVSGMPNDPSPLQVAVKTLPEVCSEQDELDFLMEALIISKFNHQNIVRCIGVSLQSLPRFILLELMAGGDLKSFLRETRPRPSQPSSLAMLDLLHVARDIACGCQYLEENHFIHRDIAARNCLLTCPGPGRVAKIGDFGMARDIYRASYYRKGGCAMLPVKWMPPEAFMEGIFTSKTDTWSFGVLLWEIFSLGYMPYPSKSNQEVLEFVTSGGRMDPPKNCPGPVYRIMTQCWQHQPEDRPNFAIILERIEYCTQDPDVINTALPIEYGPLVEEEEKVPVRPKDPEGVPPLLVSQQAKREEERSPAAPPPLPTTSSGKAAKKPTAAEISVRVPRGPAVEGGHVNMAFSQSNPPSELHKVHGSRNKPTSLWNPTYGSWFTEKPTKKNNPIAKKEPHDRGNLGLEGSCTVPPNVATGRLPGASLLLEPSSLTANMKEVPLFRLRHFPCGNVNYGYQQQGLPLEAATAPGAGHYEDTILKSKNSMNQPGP

c-MET = c-MET (Homo sapiens, UniProt P08581); assay: HTRF kinase inhibitory assay, c-MET; assay type: biochemical; conditions: for inhibition at 1 µM: read-out: c-MET Inhibition (1μM); for c-MET Inhibition (1μM): kinase inhibition % at 1 μM
c-MET, sequence (P08581 25-1390): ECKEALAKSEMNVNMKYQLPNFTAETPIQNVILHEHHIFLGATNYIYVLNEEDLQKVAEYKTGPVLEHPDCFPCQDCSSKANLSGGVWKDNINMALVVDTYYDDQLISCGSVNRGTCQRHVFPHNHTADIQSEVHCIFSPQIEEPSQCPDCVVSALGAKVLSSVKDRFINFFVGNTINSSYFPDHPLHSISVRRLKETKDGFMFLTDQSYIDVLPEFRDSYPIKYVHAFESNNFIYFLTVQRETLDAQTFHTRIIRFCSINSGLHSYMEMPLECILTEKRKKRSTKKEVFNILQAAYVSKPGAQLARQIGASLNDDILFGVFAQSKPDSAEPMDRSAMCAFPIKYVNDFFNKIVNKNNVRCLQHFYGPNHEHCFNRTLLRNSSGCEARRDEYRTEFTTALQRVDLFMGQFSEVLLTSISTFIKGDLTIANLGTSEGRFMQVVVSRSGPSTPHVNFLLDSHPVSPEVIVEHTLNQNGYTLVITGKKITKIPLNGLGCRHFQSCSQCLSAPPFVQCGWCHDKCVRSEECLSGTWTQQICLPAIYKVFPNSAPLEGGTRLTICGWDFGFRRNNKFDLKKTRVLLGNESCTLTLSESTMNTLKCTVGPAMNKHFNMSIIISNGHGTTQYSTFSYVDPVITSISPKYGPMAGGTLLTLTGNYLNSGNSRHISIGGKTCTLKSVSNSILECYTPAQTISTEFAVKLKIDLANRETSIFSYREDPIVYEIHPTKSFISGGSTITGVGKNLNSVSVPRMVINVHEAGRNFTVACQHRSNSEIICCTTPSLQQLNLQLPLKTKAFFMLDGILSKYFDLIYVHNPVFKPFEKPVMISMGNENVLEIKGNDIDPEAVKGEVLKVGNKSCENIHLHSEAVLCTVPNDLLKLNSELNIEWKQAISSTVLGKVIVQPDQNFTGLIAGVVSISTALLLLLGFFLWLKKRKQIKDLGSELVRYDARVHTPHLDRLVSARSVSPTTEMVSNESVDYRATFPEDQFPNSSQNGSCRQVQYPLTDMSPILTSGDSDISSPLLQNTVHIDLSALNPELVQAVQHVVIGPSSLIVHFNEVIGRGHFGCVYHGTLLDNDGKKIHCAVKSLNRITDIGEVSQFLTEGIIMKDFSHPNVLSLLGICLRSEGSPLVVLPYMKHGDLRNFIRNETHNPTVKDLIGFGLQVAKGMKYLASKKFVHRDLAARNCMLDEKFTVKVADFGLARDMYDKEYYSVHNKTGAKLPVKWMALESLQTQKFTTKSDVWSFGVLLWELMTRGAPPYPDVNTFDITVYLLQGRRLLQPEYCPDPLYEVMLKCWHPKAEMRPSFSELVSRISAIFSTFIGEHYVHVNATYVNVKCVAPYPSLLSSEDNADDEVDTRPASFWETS

[1] = test system: HCC-78 cell line harbouring SLC34A2-ROS1 fusion; assay: Antiproliferative MTT assay, HCC-78; assay type: cell-based, human; conditions: read-out: Cellular IC50 (μM) HCC-78
[2] = test system: NCI-H3122 cell line harbouring EML4-ALK fusion; assay: Antiproliferative MTT assay, NCI-H3122; assay type: cell-based, human; conditions: read-out: Cellular IC50 (μM) NCI-H3122
[3] = average of two independent experiments
[4] = read-out: ROS1 IC50, average of two independent experiments
[5] = MTT, 72 h, mean of at least three independent experiments

Compound	IC50 (ROS1)	inhibition at 1 µM (ROS1)	IC50 (ALK^WT)	inhibition at 1 µM (ALK^WT)	inhibition at 1 µM (c-MET)	IC50 ([1]; Homo sapiens, HCC78, 72 h)	IC50 ([2]; Homo sapiens, NCI-H3122, 72 h)	fold decrease in ROS1 potency compared to A02 (ROS1; 963.9 nM vs. 99.5 nM)	ROS1 Inhibition (1μM) (ROS1; [3])	IC50 (ROS1; [4])	ALK Inhibition (1μM) (ALK^WT)	IC50 (ALK^WT; read-out: ALK IC50)	c-MET Inhibition (1μM) (c-MET)	IC50 [1, 5]	IC50 [2, 5]
C[C@@H](Oc1cc(-c2ccnn2C)cnc1N)c1ccccc1 [A01, (R)-5–(1-methyl-1H-pyrazol-5-yl)-3–(1-phenylethoxy)pyridin-2-amine]	0.173 µM	101%	0.407 µM	90%	5%	28.7 ± 5.8 µM	152 ± 44.4 µM	–	–	–	–	–	–	–	–
C[C@@H](Oc1cc(-c2cnn(C)c2)cnc1N)c1ccccc1 [A02, (R)-5–(1-methyl-1H-pyrazol-4-yl)-3–(1-phenylethoxy)pyridin-2-amine]	0.0995 µM	101%	0.458 µM	65%	2%	36.4 ± 3.7 µM	149 ± 18.5 µM	–	–	–	–	–	–	–	–
CCn1cc(-c2cnc(N)c(O[C@H](C)c3ccccc3)c2)cn1 [A03, (R)-5–(1-ethyl-1H-pyrazol-4-yl)-3–(1-phenylethoxy)pyridin-2-amine]	0.317 µM	85%	0.454 µM	65%	14%	50.5 ± 14 µM	101 ± 22.8 µM	–	–	–	–	–	–	–	–
CCCn1cc(-c2cnc(N)c(O[C@H](C)c3ccccc3)c2)cn1 [A04, (R)-3–(1-phenylethoxy)-5–(1-propyl-1H-pyrazol-4-yl)pyridin-2-amine]	0.964 µM	64%	1.54 µM	37%	5%	–	–	~10 fold	–	–	–	–	–	–	–
C[C@@H](Oc1cc(-c2cccn2C)cnc1N)c1ccccc1F [A05, (R)-3–(1-(2-fluorophenyl)ethoxy)-5–(1-methyl-1H-pyrrol-2-yl)pyridin-2-amine]	–	43%	–	18%	-10%	278 ± 53.1 µM	168 ± 39.4 µM	–	–	–	–	–	–	–	–
C[C@@H](Oc1cc(-c2cnn(C)c2)cnc1N)c1ccccc1F [A06, (R)-3–(1-(2-fluorophenyl)ethoxy)-5–(1-methyl-1H-pyrazol-4-yl)pyridin-2-amine]	0.0831 µM	100%	0.231 µM	73%	11%	16 ± 1.2 µM	10.2 ± 0.1 µM	–	–	–	–	–	–	–	–
CCn1cc(-c2cnc(N)c(O[C@H](C)c3ccccc3F)c2)cn1 [A07, (R)-5–(1-ethyl-1H-pyrazol-4-yl)-3–(1-(2-fluorophenyl)ethoxy)pyridin-2-amine]	0.0814 µM	87%	–	69%	18%	–	–	–	–	–	–	–	–	–	–
CCCn1cc(-c2cnc(N)c(O[C@H](C)c3ccccc3F)c2)cn1 [A08, (R)-3–(1-(2-fluorophenyl)ethoxy)-5–(1-propyl-1H-pyrazol-4-yl)pyridin-2-amine]	0.12 µM	91%	–	58%	22%	13.9 ± 6.3 µM	36.8 ± 2.5 µM	–	–	–	–	–	–	–	–
C[C@@H](Oc1cc(-c2cccn2C)cnc1N)c1ccccc1-c1ccnn1C [B01, (R)-3–(1-(2–(1-methyl-1H-pyrazol-5-yl)phenyl)ethoxy)-5–(1-methyl-1H-pyrrol-2-yl)pyridin-2-amine]	0.103 µM	81%	–	30%	0%	33.9 ± 1.8 µM	186 ± 8.6 µM	–	–	–	–	–	–	–	–
C[C@@H](Oc1cc(-c2ccnn2C)cnc1N)c1ccccc1-c1ccnn1C [B02, (R)-5–(1-methyl-1H-pyrazol-5-yl)-3–(1-(2–(1-methyl-1H-pyrazol-5-yl)phenyl)ethoxy)pyridin-2-amine]	0.216 µM	86%	–	30%	6%	64.8 ± 4.5 µM	689 ± 57.2 µM	–	–	–	–	–	–	–	–
C[C@@H](Oc1cc(-c2cnn(C)c2)cnc1N)c1ccccc1-c1ccnn1C [B03, (R)-5–(1-methyl-1H-pyrazol-4-yl)-3–(1-(2–(1-methyl-1H-pyrazol-5-yl)phenyl)ethoxy)pyridin-2-amine]	0.374 µM	74%	0.286 µM	88%	21%	52.7 ± 15.2 µM	207 ± 40.7 µM	–	–	–	–	–	–	–	–
CCn1cc(-c2cnc(N)c(O[C@H](C)c3ccccc3-c3ccnn3C)c2)cn1 [B04, (R)-5–(1-ethyl-1H-pyrazol-4-yl)-3–(1-(2–(1-methyl-1H-pyrazol-5-yl)phenyl)ethoxy)pyridin-2-amine]	0.0805 µM	–	–	59%	28%	28 ± 4.5 µM	128 ± 25.5 µM	–	–	–	–	–	–	–	–
CCCn1cc(-c2cnc(N)c(O[C@H](C)c3ccccc3-c3ccnn3C)c2)cn1 [B05, (R)-3–(1-(2–(1-methyl-1H-pyrazol-5-yl)phenyl)ethoxy)-5–(1-propyl-1H-pyrazol-4-yl)pyridin-2-amine]	0.26 µM	90%	1.16 µM	42%	26%	21.3 ± 0.7 µM	96.2 ± 6.9 µM	–	–	–	–	–	–	–	–
C[C@@H](Oc1cc(-c2cccn2C)cnc1N)c1ccccc1-c1ccccc1 [B06, (R)-3–(1-([1,1'-biphenyl]-2-yl)ethoxy)-5–(1-methyl-1H-pyrrol-2-yl)pyridin-2-amine]	0.192 µM	90%	–	44%	9%	7.1 ± 0.7 µM	24.8 ± 5 µM	–	–	–	–	–	–	–	–
C[C@@H](Oc1cc(-c2ccnn2C)cnc1N)c1ccccc1-c1ccccc1 [B07, (R)-3–(1-([1,1'-biphenyl]-2-yl)ethoxy)-5–(1-methyl-1H-pyrazol-5-yl)pyridin-2-amine]	0.0657 µM	99%	0.217 µM	99%	8%	16.9 ± 1.4 µM	14.3 ± 3.6 µM	–	–	–	–	–	–	–	–
CCn1cc(-c2cnc(N)c(O[C@H](C)c3ccccc3-c3ccccc3)c2)cn1 [B09, (R)-3–(1-([1,1'-biphenyl]-2-yl)ethoxy)-5–(1-ethyl-1H-pyrazol-4-yl)pyridin-2-amine]	–	99%	0.0759 µM	92%	50%	11.4 ± 0.5 µM	8.5 ± 1.2 µM	–	–	–	–	–	–	–	–
CCCn1cc(-c2cnc(N)c(O[C@H](C)c3ccccc3-c3ccccc3)c2)cn1 [B10, (R)-3–(1-([1,1'-biphenyl]-2-yl)ethoxy)-5–(1-propyl-1H-pyrazol-4-yl)pyridin-2-amine]	0.148 µM	98%	–	82%	60%	7.7 ± 1.2 µM	13.9 ± 1.2 µM	–	–	–	–	–	–	–	–
(R)-5–(6-amino-5–(1-(3'-methyl-[1,1'-biphenyl]-2-yl)ethoxy)pyridin-3-yl)-1'-methylspiro[indoline-3,4'-piperidin]-2-one [C05]	–	–	–	–	–	–	–	–	100%	0.0773 µM	101%	0.0797 µM	59%	4.6 ± 0.1 µM	2.4 ± 0.1 µM
(R)-5–(6-amino-5–(1-(4'-methyl-[1,1'-biphenyl]-2-yl)ethoxy)pyridin-3-yl)-1'-methylspiro[indoline-3,4'-piperidin]-2-one [C04]	–	–	–	–	–	–	–	–	100%	0.0165 µM	100%	0.0388 µM	43%	–	2.4 ± 0.3 µM
